Results on two compounds are retold here after patent US9944669B2, “Fumarate-CO-releasing molecule hybrids, their use in the treatment of inflammatory or cardiovascular diseases and their process of preparation” (UNIVERSITE PARIS EST CRETEIL VAL DE MARNE, priority 2014, dated 2018).

SMILES strings stand for the structures. Structures can show the parent of a compound that is named as a salt.

For one experiment, the system named is TNF-α. Description: TNF-α production in THP-1 cells challenged with LPS. Type of experiment: cell-based, Human. Conditions: LPS (100 μg/ml), 5 μM compound, 24 h. On the procedure:
Human THP-1 cells cultured as in Example 3.3 were treated with LPS (100 μg/ml) alone or in the presence of 5 μM compound C, compound E or the comparative dimethyl fumarate (DMF) for 24 h.

Experiment [1] deals with BV2 cells challenged with lipopolysaccharide (LPS). The experiment in a line: Nitrite production in BV2 cells challenged with LPS (Griess method). Type of experiment: cell-based. How it is done: […] At the end of the incubation, nitrite levels were measured using the Griess method.^12,14 Briefly, cell plates were centrifuged at 10,000×g for 5 min and the cell-free supernatant was incubated with an equal volume of Griess reagent (2 mM N-(1-naphtyl)ethylenediamide, 30 mM sulfanilamide and 140 mM o-phosphoric acid) for 10 min at room temperature. The absorbance was measured at 560 nm. Concentrations of nitrite (μM) were calculated from a standard curve of sodium nitrite.
Background: Griess reagent forms a coloured azo dye with nitrite.

Another experiment deals with HO-1. The experiment in a line: HO-1 protein expression in THP-1 cells. Type of experiment: cell-based, Human. On the procedure:
THP-1 cells were exposed to different concentration of compounds A, B, and C during 6 hours.

As to `COC(=O)/C=C/C(=O)OC` [dimethyl fumarate (DMF)], the TNF-α production result with TNF-α is recorded as “did not have any effect”.

Take `C#CCOC(=O)/C=C/C(=O)OCC` [Compound J]: the “Nitrite levels (μM) LPS + compound” value in experiment [1] (5 μM compound, 24 hr incubation with 0.5 μg/ml LPS, mean ± SEM) was found to be 43.2 ± 1.0 µM. In addition, the “% decrease vs. LPS (nitrite)” value in experiment [1] (5 μM compound, 24 hr, LPS) is on record as 50.1%. Moreover, the “concentration giving almost the same reduction of nitrite production (compound C vs compound J)” value in experiment [1] (BV2, LPS 1 μg/ml 24 h) stood at 5 µM. Further, the “concentration needed for the same HO-1 result, as fold of the compound C concentration (5 μM)” value in the experiment on HO-1 is 10 fold.
